Where “and” joins values, the source holds several entries; their conditions need not be identical. Equal entries are not always repeated. Entries after “also recorded” stand apart in the source; their conditions may differ.
Legend:
Format in all cases: cell-based
Kir2.1Y channel [1] = experiment: FRAC: recovery of Kir2.1Y channel activity (Rb+ efflux) after MTSET chemobleaching
From the text: To assay the transit time of nacently surfaced receptor, we first modify, inhibit, or change (pulse) accessible functional molecules on the cell surface and then monitor the recovery of the original function/activity at subsequent time points (chase). One thus may determine the time required to populate the cell surface with newly inserted cell surface molecules (FIG. 1). Designing versions of this assay involves consideration of at least four factors. (i) A functional assay preferably monitors activity predominantly or only from molecules on the cell surface. […] (iii) The activity detection should be relatively short compared with the time required to repopulate the cell surface with functional molecules. (iv) The pulse should be rapid, quantitative, and optionally irreversible, thereby allowing detection of the activity contributed only by the newly arrived (or newly activated) proteins on the cell surface. These are considerations only, rather than mandatory properties. Deviation from one of these considerations may involve compensation by another. Furthermore, one of ordinary skill in the art will appreciate that treatment of cell surfaces can be restricted to a desirable area, such as the apical surface of epithelial cells. Thus, spatially restricted populations of cell surface receptors can be affected.
Rb^+ Flux Assay and Atomic Absorption Spectrometry. All assays shown were performed at room temperature in poly(L-lysine) (0.1 mg/ml)-coated 24-well microplates. For experiments with transiently transfected cells, ˜1×10^5 cells were seeded in each well the day before transfection (0.3 μg of DNA per well). Sodium butyrate at 5 mM was added 6-8 h after transfection. The assays were performed 24 h after transfection. […]
Rb^+ Efflux. […] The Rb^+ concentration in each sample was analyzed using the ICR 8000. Rb^+ efflux (%) was determined as: 100%×[Rb^+]sup/([Rb^+]sup+[Rb^+]lysate) where [Rb^+]sup represents the Rb^+ concentration in the supernatant, and [Rb^+]lysate represents the Rb^+ concentration in the cell lysate. […]

Kir2.1Y channel [2] = experiment: Rb+ efflux of 293 cells stably expressing Kir2.1Y incubated with BFA without MTSET treatment
Experimental: (§1) Rb^+ Flux Assay and Atomic Absorption Spectrometry. All assays shown were performed at room temperature in poly(L-lysine) (0.1 mg/ml)-coated 24-well microplates. For experiments with transiently transfected cells, ˜1×10^5 cells were seeded in each well the day before transfection (0.3 μg of DNA per well). Sodium butyrate at 5 mM was added 6-8 h after transfection. The assays were performed 24 h after transfection. HEK 293 cells stably expressing either Kir2.1 or Kir2.1Y channel were seeded with a cell density of 2×10^5 cells per well. To enhance expression, 5 mM sodium butyrate was added 4-6 h after seeding. Cells then were cultured continuously for 16-20 h before experiments.
Rb^+ Efflux. To load Rb^+ into cells, we incubated cells in 0.5 ml per well 50/50 DMEM/F12 complete growth medium containing ˜5 mM RbCl at 37° C. for 3-4 h. Cells then were washed twice quickly with 1 ml per well non-Rb^+ medium to remove residual Rb^+. […] The Rb^+ concentration in each sample was analyzed using the ICR 8000. Rb^+ efflux (%) was determined as: 100%×[Rb^+]sup/([Rb^+]sup+[Rb^+]lysate) where [Rb^+]sup represents the Rb^+ concentration in the supernatant, and [Rb^+]lysate represents the Rb^+ concentration in the cell lysate. […]

Kir2.1 = experiment: Rb+ efflux of 293 cells stably expressing Kir2.1 incubated with BFA without MTSET treatment; details: BFA 3 h, absence of MTSET treatment (data not shown)
Experimental: as §1
Rb^+ Efflux. […] The Rb^+ concentration in each sample was analyzed using the ICR 8000. Rb^+ efflux (%) was determined as: 100%×[Rb^+]sup/([Rb^+]sup+[Rb^+]lysate) where [Rb^+]sup represents the Rb^+ concentration in the supernatant, and [Rb^+]lysate represents the Rb^+ concentration in the cell lysate.
In the case of Kir2.1, we observed reproducible ˜30% reduction over the same period of incubation (data not shown). […] For Kir2.1Y, the combination of quantitative elimination of surface channel activity by MTSET, the >90% activity recovery, and little detectable reduction of Rb^+ efflux in the presence of BFA then would predict a 2-fold increase of protein signal on the cell surface. […]

Kir2.1Y channel [3] = experiment: Rb+ influx assay of HEK 293 cells transiently transfected with Kir2.1Y, with MTSET treatment; details: MTSET treatment before the assay (2.5 mM per FIG. 2 legend)
Experimental: as §1
Rb^+ Influx. To perform the assay, cells first were incubated in 50/50 DMEM/F12 complete growth medium containing 5 mM RbCl for the indicated time periods before the medium was quickly aspirated. Cells then were washed twice quickly with non-Rb^+ DMEM/F12 medium and lysed with 0.5 ml of 0.1% SDS per well. The Rb^+ concentration in cell lysates was measured by atomic absorption spectrophotometry (ICR8000, Aurora Biomed, Vancouver), according to the manufacturer's user manual.
(§2) To monitor the specificity of the Rb^+ assay and the effectiveness of Rb^+ detection by atomic absorption spectrometry (19), we measured the Rb^+ uptake signals of transiently transfected cells at different times of incubation. […]

Kir2.1Y channel [4] = experiment: Rb+ efflux assay of 293 cells stably expressing Kir2.1Y, with MTSET treatment; details: stable Kir2.1Y line, FIG. 2c
Experimental: as §1
Rb^+ Efflux. To load Rb^+ into cells, we incubated cells in 0.5 ml per well 50/50 DMEM/F12 complete growth medium containing ˜5 mM RbCl at 37° C. for 3-4 h. […] The Rb^+ concentration in each sample was analyzed using the ICR 8000. Rb^+ efflux (%) was determined as: 100%×[Rb^+]sup/([Rb^+]sup+[Rb^+]lysate) where [Rb^+]sup represents the Rb^+ concentration in the supernatant, and [Rb^+]lysate represents the Rb^+ concentration in the cell lysate.
as §2

wild-type Kir2.1 = target: T1, wild-type Kir2.1 (Homo sapiens, UniProt P63252); experiment: Rb+ flux assay of wild-type Kir2.1 with MTSET
T1 sequence (P63252 1-427): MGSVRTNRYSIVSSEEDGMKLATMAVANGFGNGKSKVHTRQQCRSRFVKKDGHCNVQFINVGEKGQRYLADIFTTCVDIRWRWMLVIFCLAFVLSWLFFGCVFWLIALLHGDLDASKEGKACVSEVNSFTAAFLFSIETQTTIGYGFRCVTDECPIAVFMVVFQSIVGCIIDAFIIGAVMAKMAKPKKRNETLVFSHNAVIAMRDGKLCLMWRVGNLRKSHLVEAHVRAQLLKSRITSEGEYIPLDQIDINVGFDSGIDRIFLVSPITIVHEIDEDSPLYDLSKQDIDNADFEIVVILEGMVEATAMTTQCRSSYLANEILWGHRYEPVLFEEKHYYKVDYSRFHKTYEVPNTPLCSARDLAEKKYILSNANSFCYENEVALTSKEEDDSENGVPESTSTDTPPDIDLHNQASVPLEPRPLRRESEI
From the text: (§3) Earlier reports using electrophysiological recording have shown that membrane-nonpermeable MTS reagents such as MTSET reduce or abolish the current of Kir2.1 by covalently modifying the reduced form of cysteine residues already present in the channel protein or introduced by site-directed mutagenesis (18). It is not known whether or to what extent the modifications by MTS reagents will affect channel activity measured by a Rb^+ flux assay. We tested several cysteine positions of Kir2.1 mutants using MTSET, a positively charged cysteinyl sulfhydryl-specific reagent.

Kir2.1 mutation of C149 = experiment: Electrophysiological recording and Rb+ assay of Kir2.1 C149 mutant with MTSET; details: electrophysiological recording and Rb+ assay (data not shown)
From the text: as §3

SMILES: C[C@H]1CCC/C=C/[C@@H]2C[C@H](O)C[C@H]2[C@H](O)/C=C/C(=O)O1 [BFA, Brefeldin A]
- activity recovery (Kir2.1Y channel [1]; 1 μM BFA at 37° C. for 3 h, added immediately after 5-min MTSET treatment (FIG. 5a)): < 20% and 20%
- BFA concentration at which the effect reaches a plateau (Kir2.1Y channel [1]; recovery at 3 h, 37° C., FIG. 5b): > 0.6 µM
- sensitivity of surface channel activity to BFA concentrations (Kir2.1Y channel [2]; absence of MTSET treatment, 3-h incubation, FIG. 5b): no sensitivity
- effect on activity of channels already on the cell surface (Rb+ efflux) (Kir2.1Y channel [2]; without MTSET treatment, 3-h incubation with BFA): did not affect the activity; also recorded: did not result in a detectable reduction
- reduction of Rb+ efflux activity (Kir2.1): ~30%

SMILES: C[N+](C)(C)CCSS(C)(=O)=O.[Br-] [MTSET, [2-(trimethylammonium)ethyl]methanethiosulfonate bromide]
- specific Rb+ uptake signal abolished (Kir2.1Y channel [3]): > 80%
- Rb+ efflux signal after MTSET treatment (Kir2.1Y channel [4]): only background signals were observed
- effect of MTSET on channel activity (wild-type Kir2.1): quantitatively nullified
- sensitivity to MTSET (Kir2.1 mutation of C149): loss of sensitivity

SMILES: C[C@@H]1C[C@@H]([C@H](O)CC2CC(=O)NC(=O)C2)C(=O)[C@@H](C)C1 [cycloheximide]
- activity recovery (Kir2.1Y channel [1]; cycloheximide in FRAC experiments (data not shown)): 40%

From patent publication US7883893B2, “Method to assay test substances” (priority 2005, dated 2011)
